Consider seven compounds from ChEMBL document CHEMBL2073778, “Identification of lactate as a driving force for prostanoid transport by prostaglandin transporter PGT” (Am J Physiol Renal Physiol, 2002).

This assay has as its target Solute carrier organic anion transporter family member 2A1 (Homo sapiens, UniProt Q92959). Kind of assay: TP_TRANSPORTER: inhibition of PGE2 uptake in PGT-expressing HeLa cells. Format: functional, cell-based.

Each structure is given as a SMILES string.

`O=C[C@H](O)COP(=O)(O)O` gave an inhibition constant Ki of 15 mM. That is a millimolar value. With `O=C(OP(=O)(O)O)C(O)COP(=O)(O)O` (configuration not stated) the figure was 57 mM; with `O=P(O)(O)OC[C@H]1O[C@@H](O)[C@H](O)[C@@H](O)[C@@H]1O`, 31 mM. With `C[C@@H](O)C(=O)O` [D-LACTIC ACID] the figure was 48 mM; with `O=P(O)(O)OC[C@H]1O[C@@](O)(COP(=O)(O)O)[C@@H](O)[C@@H]1O` [FRUCTOSE 1,6-DIPHOSPHATE], 51 mM; with `C=C(OP(=O)(O)O)C(=O)O` [PHOSPHOENOLPYRUVATE], 13 mM. The figure for `CC(=O)C(=O)O` [PYRUVATE] is 26 mM.

As usually defined, the Ki is the dissociation constant of the complex between target and ligand, obtained from inhibition or displacement. A lower Ki goes with a stronger hold on the target.
